Experiment [1] in a line: Perfect off-state by site-specific incorporation of o-nitrobenzyl (o-NB) unit into RNase S' was determined after photolysis at 10 x E5 M/min.
Experiment [2] can be described thus: Perfect off-state by site-specific incorporation of o-nitrobenzyl (o-NB) unit into RNase S' was determined before photolysis at 10 x E5 M/min.
A short description of experiment [3]: Michaelis-Menten parameter value for the incorporation of photo-labile caged moiety into a proximity to the active site.
Experiment [4] can be described thus: Michaelis-Menten parameter(Kcat) value for the incorporation of photo-labile caged moiety into a proximity to the active site.
Experiment [5] can be described thus: Michaelis-Menten parameter(Km) value for the incorporation of photo-labile caged moiety into a proximity to the active site.

SMILES strings stand for the structures. Non-standard residues stand in square brackets, D forms with d. Residues, ends and D or L forms follow the SMILES beside them. *: point of attachment. X2 = COC(=O)C(N*)c1ccccc1[N+](=O)[O-]; X3 = O=C(OCc1ccccc1[N+](=O)[O-])*; X1 = O=[N+]([O-])c1ccccc1CO*; Nle = CCCC[C@H](N)C(=O)O

The molecule `CCCC[C@H](NC(=O)[C@H](Cc1c[nH]cn1)NC(=O)[C@H](CCC(N)=O)NC(=O)[C@H](CCCN=C(N)N)NC(=O)[C@H](CCC(=O)O)NC(=O)[C@H](Cc1ccccc1)NC(=O)[C@H](CCCCN)NC(=O)[C@H](C)NC(=O)[C@H](C)NC(=O)[C@H](C)NC(=O)[C@@H](NC(=O)[C@H](CCC(=O)OCc1ccccc1[N+](=O)[O-])NC(=O)[C@@H](N)CCCCN)[C@@H](C)O)C(=O)N[C@@H](CC(=O)O)C(=O)N[C@@H](CO)C(=O)O` (H-KE(X1)TAAAKFERQH[Nle]DS-OH) returned an RNase S' enzyme activity in experiment [1] of 0.81. The Photolysis in experiment [2] is 0.96.

Molecule `CCCC[C@H](NC(=O)[C@H](Cc1c[nH]cn1)NC(=O)[C@H](CCC(N)=O)NC(=O)[C@H](CCCN=C(N)N)NC(=O)[C@H](CCC(=O)O)NC(=O)[C@H](Cc1ccccc1)NC(=O)[C@H](CCCCN)NC(=O)[C@H](C)NC(=O)[C@H](C)NC(=O)[C@H](C)NC(=O)[C@@H](NC(=O)[C@H](CCC(=O)O)NC(=O)[C@@H](N)CCCCNC(=O)OCc1ccccc1[N+](=O)[O-])[C@@H](C)O)C(=O)N[C@@H](CC(=O)O)C(=O)N[C@@H](CO)C(=O)O` (H-K(X3)ETAAAKFERQH[Nle]DS-OH) yielded an RNase S' enzyme activity in experiment [1] of 1.04. Further, the Photolysis in experiment [2] amounted to 1.01.

Turning to `CCCC[C@H](NC(=O)[C@H](Cc1c[nH]cn1)NC(=O)[C@H](CCC(N)=O)NC(=O)[C@H](CCCN=C(N)N)NC(=O)[C@H](CCC(=O)O)NC(=O)[C@H](Cc1ccccc1)NC(=O)[C@H](CCCCN)NC(=O)[C@H](C)NC(=O)[C@H](C)NC(=O)[C@H](C)NC(=O)[C@@H](NC(=O)[C@H](CCC(=O)O)NC(=O)[C@@H](N)CCCCN)[C@@H](C)O)C(=O)N[C@@H](CC(=O)O)C(=O)N[C@@H](CO)C(=O)O` (H-KETAAAKFERQH[Nle]DS-OH), the Photolysis in experiment [2] came to 1.02. In experiment [3], the k cat amounted to 0.0678 s⁻¹.

As to `CCCC[C@H](NC(=O)[C@H](Cc1c[nH]cn1)NC(=O)[C@H](CCC(N)=O)NC(=O)[C@H](CCCN=C(N)N)NC(=O)[C@H](CCC(=O)O)NC(=O)[C@H](Cc1ccccc1)NC(=O)[C@H](CCCCNC(=O)OCc1ccccc1[N+](=O)[O-])NC(=O)[C@H](C)NC(=O)[C@H](C)NC(=O)[C@H](C)NC(=O)[C@@H](NC(=O)[C@H](CCC(=O)O)NC(=O)[C@@H](N)CCCCN)[C@@H](C)O)C(=O)N[C@@H](CC(=O)O)C(=O)N[C@@H](CO)C(=O)O` (H-KETAAAK(X3)FERQH[Nle]DS-OH), the RNase S' enzyme activity in experiment [1] was 1.04. This molecule also returned a Photolysis in experiment [2] of 1.1.

For `CCCC[C@H](NC(=O)[C@H](Cc1c[nH]cn1)NC(=O)[C@H](CCC(=O)NC(C(=O)OC)c1ccccc1[N+](=O)[O-])NC(=O)[C@H](CCCN=C(N)N)NC(=O)[C@H](CCC(=O)O)NC(=O)[C@H](Cc1ccccc1)NC(=O)[C@H](CCCCN)NC(=O)[C@H](C)NC(=O)[C@H](C)NC(=O)[C@H](C)NC(=O)[C@@H](NC(=O)[C@H](CCC(=O)O)NC(=O)[C@@H](N)CCCCN)[C@@H](C)O)C(=O)N[C@@H](CC(=O)O)C(=O)N[C@@H](CO)C(=O)O` (stereo partly specified) (H-KETAAAKFERE(X2)H[Nle]DS-OH), the RNase S' enzyme activity in experiment [1] worked out at 0.37. Further, the Photolysis in experiment [2] amounted to 0.

For the molecule `CCCC[C@H](NC(=O)[C@H](Cc1c[nH]cn1)NC(=O)[C@H](CCC(N)=O)NC(=O)[C@H](CCCN=C(N)N)NC(=O)[C@H](CCC(=O)OCc1ccccc1[N+](=O)[O-])NC(=O)[C@H](Cc1ccccc1)NC(=O)[C@H](CCCCN)NC(=O)[C@H](C)NC(=O)[C@H](C)NC(=O)[C@H](C)NC(=O)[C@@H](NC(=O)[C@H](CCC(=O)O)NC(=O)[C@@H](N)CCCCN)[C@@H](C)O)C(=O)N[C@@H](CC(=O)O)C(=O)N[C@@H](CO)C(=O)O` (H-KETAAAKFE(X1)RQH[Nle]DS-OH), in experiment [1], the RNase S' enzyme activity was 0.97. The molecule further came in with a Photolysis in experiment [2] of 0.99.

One may read the Km as the concentration of substrate that gives half-maximal velocity. In experiment [1], `CCCC[C@H](NC(=O)[C@H](Cc1c[nH]cn1)NC(=O)[C@H](CCC(N)=O)NC(=O)[C@H](CCCN=C(N)N)NC(=O)[C@H](CCC(=O)O)NC(=O)[C@H](Cc1ccccc1)NC(=O)[C@H](CCCCN)NC(=O)[C@H](C)NC(=O)[C@H](C)NC(=O)[C@H](C)NC(=O)[C@@H](NC(=O)[C@H](CCC(=O)O)NC(=O)[C@@H](N)CCCCN)[C@@H](C)O)C(=O)N[C@@H](CC(=O)OCc1ccccc1[N+](=O)[O-])C(=O)N[C@@H](CO)C(=O)O` (H-KETAAAKFERQH[Nle]D(X1)S-OH) registered an RNase S' enzyme activity of 0.78. Further, the Photolysis in experiment [2] worked out at 0.29. Also, the k cat in experiment [4] came to 0.054 s⁻¹. The Km in experiment [5] amounted to 1130 µM.

The values are drawn from ChEMBL document CHEMBL1136413, “Caged RNase: photoactivation of the enzyme from perfect off-state by site-specific incorporation of 2-nitrobenzyl moiety” (Bioorg Med Chem Lett, 2003).
